Holding throughout (test): relative viability (nuclei count vs DMSO), 5 days (fraction); higher = more cells survive
Compound in test [1]: CCC1=CN=CN=C1N2CCN(CC2)CC3=NC4=C(N3)C=C(C=C4)C(F)(F)F + COc1cc2c(Oc3ccc(NC(=O)C4(C(=O)Nc5ccc(F)cc5)CC4)cc3F)ccnc2cc1OCCCN1CCOCC1 [Foretinib] (partner 0.25 µM)
A digest of the protocol:
(§1)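 Lung cancer cell lines were pin-tool dosed in 1536-well plates on the day after seeding, with either a lone drug or a fixed anchor-drug dose plus five library-drug doses (not always all listed) in √10 steps. Nuclei were counted on 4× images after 5 days. Relative viability is the ratio of treated-well to vehicle-well nuclei counts, with each value a median of duplicate plates.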

Compound in test [2]: CCC1=CN=CN=C1N2CCN(CC2)CC3=NC4=C(N3)C=C(C=C4)C(F)(F)F + C[C@@H](Oc1cc(-c2cnn(C3CCNCC3)c2)cnc1N)c1c(Cl)ccc(F)c1Cl [Crizotinib] (partner 1 µM)
A digest of the protocol:
as §1

Compound in test [3]: CCn1c(-c2nonc2N)nc2cnc(Oc3cccc(NC(=O)c4ccc(OCCN5CCOCC5)cc4)c3)cc21 + O=C(c1cc(Cc2n[nH]c(=O)c3ccccc23)ccc1F)N1CCN(C(=O)C2CC2)CC1 [Olaparib] (partner 8 µM)
An outline of the steps: as §1

Compound in the test “Mirin + OSI-027”: N=C1NC(=O)/C(=C/c2ccc(O)cc2)S1 [Mirin] + COc1cccc2cc(-c3nc([C@H]4CC[C@H](C(=O)O)CC4)n4ncnc(N)c34)[nH]c12 [OSI-027] (partner 0.5 µM)
An outline of the steps:
as §1

Consider UMC-11, for which the relative viability was determined as 0.997 in test [1] (first compound 0.04 µM); 0.932 in test [1] (first compound 0.1265 µM); 1 in test [1] (first compound 0.4 µM); 0.898 in test [1] (first compound 1.265 µM); 0.96 in test [1] (first compound 4 µM); 0.572 in test [2] (first compound 0.04 µM). Further, the relative viability was 0.611 in test [2] (first compound 0.1265 µM); 0.621 in test [2] (first compound 0.4 µM); 0.615 in test [2] (first compound 1.265 µM); 0.906 in test [2] (first compound 4 µM); 0.38 in test [3] (first compound 0.04 µM); 0.303 in test [3] (first compound 0.1265 µM). For the same cell line, the relative viability is 0.32 in test [3] (first compound 0.4 µM); 0.088 in test [3] (first compound 1.265 µM); 0.185 in test [3] (first compound 4 µM); 0.477 with Mirin + OSI-027 (first compound 0.25 µM); 0.483 with Mirin + OSI-027 (first compound 0.7906 µM); 0.461 with Mirin + OSI-027 (first compound 2.5 µM). Besides, the relative viability with Mirin + OSI-027 (first compound 7.906 µM) came to 0.396; in the test with Mirin + OSI-027 (first compound 25 µM), 0.293.

The values above are taken from the supplement of paper PMC10307832.
